Experiments:
[1] = target: Histone deacetylase 4 (Homo sapiens, UniProt P56524); assay: Inhibition of C-terminal His-tagged/N-terminal GST-tagged human HDAC4 (627 to 1084 residues) expressed in baculovirus-infected Sf9 cells using Boc-Lys-(trifluoroacetyl)-AMC as substrate preincubated with enzyme for 1 hr followed by substrate addition and measured after 2 hrs by fluorescence analysis
[2] = target: T1, Histone deacetylase 7 (Homo sapiens, UniProt Q8WUI4); assay: Inhibition of N-terminal GST-tagged human HDAC7 (518 to end residues) expressed in baculovirus-infected Sf9 cells using Boc-Lys-(trifluoroacetyl)-AMC as substrate preincubated with enzyme for 1 hr followed by substrate addition and measured after 2 hrs by fluorescence analysis
T1 sequence (Q8WUI4 whole entry): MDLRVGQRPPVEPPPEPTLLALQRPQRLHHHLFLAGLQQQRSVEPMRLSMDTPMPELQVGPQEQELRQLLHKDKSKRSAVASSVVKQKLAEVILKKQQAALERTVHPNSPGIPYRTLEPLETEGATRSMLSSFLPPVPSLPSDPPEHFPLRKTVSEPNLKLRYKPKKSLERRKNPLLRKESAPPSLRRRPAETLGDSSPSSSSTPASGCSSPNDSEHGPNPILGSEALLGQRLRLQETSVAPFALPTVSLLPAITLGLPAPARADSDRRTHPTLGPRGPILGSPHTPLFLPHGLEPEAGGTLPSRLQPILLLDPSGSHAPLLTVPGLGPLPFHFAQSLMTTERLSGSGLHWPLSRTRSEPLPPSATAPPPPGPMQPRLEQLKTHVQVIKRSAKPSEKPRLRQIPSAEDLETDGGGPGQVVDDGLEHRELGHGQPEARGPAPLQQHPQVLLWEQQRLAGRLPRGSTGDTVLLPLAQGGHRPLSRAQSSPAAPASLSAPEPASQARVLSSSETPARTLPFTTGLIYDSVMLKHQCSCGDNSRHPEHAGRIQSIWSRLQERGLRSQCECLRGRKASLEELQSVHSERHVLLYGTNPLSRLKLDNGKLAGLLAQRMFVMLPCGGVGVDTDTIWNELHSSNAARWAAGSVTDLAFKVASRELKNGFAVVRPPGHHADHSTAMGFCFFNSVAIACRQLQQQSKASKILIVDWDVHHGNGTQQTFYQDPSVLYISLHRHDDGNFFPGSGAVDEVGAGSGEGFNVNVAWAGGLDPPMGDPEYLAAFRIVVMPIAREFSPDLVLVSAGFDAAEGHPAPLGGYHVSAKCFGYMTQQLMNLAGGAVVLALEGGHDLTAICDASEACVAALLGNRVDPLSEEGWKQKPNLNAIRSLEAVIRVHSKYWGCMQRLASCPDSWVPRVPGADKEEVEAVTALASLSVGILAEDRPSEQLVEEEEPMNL

[3] = test system: MV4-11; assay: cells; assay type: functional, cell-based; conditions: Homo sapiens; for GI50: MV4-11, time 48 hrs
[4] = target: Histone deacetylase 5 (Homo sapiens, UniProt Q9UQL6); assay: Inhibition of C-terminal His-tagged human HDAC5 catalytic domain (656 to 1122 residues) expressed in baculovirus-infected Sf9 cells using Boc-Lys-(trifluoroacetyl)-AMC as substrate preincubated with enzyme for 1 hr followed by substrate addition and measured after 2 hrs by fluorescence analysis
[5] = target: T2, Histone deacetylase 8 (Homo sapiens, UniProt Q9BY41); assay: Inhibition of C-terminal His-tagged full length human recombinant HDAC8 (1 to 377 residues) expressed in baculovirus-infected Sf9 cells using Boc-Lys-(trifluoroacetyl)-AMC as substrate preincubated with enzyme for 1 hr followed by substrate addition and measured after 2 hrs by fluorescence analysis
T2 sequence (Q9BY41 whole entry): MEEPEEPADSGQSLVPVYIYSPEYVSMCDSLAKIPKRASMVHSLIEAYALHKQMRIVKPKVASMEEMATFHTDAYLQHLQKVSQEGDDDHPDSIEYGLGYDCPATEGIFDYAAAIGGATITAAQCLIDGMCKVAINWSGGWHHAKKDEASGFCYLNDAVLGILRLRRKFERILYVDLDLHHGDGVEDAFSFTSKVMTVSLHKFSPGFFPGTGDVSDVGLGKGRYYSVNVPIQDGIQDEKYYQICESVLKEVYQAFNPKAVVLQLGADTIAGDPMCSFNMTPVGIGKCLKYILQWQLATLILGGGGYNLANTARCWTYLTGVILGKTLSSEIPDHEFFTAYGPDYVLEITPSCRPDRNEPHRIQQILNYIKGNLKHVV

Sequence of Histone deacetylase 5 (Q9UQL6 whole entry, the tested form may be a part): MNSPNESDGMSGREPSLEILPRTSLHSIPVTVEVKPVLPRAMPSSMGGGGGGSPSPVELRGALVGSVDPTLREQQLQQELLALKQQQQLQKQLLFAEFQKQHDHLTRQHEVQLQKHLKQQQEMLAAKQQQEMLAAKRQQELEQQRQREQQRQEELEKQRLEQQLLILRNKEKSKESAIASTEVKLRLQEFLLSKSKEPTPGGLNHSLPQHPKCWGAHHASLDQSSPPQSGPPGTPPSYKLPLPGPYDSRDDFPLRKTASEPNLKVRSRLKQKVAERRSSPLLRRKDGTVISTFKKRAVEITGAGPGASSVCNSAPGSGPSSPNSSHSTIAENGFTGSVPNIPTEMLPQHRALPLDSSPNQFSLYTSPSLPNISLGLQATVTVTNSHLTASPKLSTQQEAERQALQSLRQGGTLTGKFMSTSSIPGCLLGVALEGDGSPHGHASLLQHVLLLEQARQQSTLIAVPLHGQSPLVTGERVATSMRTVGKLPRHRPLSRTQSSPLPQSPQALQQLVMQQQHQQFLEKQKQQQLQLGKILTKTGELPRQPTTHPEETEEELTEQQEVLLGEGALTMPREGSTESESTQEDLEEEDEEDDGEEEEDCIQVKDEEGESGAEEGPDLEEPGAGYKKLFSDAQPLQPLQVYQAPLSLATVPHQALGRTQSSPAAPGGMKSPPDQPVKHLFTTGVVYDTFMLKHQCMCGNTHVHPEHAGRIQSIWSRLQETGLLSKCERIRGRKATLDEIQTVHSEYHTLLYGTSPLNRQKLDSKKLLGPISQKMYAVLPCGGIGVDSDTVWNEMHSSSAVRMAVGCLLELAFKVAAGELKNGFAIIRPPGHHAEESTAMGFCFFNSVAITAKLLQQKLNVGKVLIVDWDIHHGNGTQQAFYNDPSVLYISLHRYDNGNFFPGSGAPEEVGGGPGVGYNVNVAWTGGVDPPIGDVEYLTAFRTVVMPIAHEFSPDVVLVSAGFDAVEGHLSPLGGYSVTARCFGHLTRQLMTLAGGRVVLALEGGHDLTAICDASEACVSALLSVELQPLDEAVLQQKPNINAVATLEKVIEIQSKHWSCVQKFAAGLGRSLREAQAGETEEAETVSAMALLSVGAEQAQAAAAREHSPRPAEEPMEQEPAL
Sequence of Histone deacetylase 4 (P56524 whole entry, the tested form may be a part): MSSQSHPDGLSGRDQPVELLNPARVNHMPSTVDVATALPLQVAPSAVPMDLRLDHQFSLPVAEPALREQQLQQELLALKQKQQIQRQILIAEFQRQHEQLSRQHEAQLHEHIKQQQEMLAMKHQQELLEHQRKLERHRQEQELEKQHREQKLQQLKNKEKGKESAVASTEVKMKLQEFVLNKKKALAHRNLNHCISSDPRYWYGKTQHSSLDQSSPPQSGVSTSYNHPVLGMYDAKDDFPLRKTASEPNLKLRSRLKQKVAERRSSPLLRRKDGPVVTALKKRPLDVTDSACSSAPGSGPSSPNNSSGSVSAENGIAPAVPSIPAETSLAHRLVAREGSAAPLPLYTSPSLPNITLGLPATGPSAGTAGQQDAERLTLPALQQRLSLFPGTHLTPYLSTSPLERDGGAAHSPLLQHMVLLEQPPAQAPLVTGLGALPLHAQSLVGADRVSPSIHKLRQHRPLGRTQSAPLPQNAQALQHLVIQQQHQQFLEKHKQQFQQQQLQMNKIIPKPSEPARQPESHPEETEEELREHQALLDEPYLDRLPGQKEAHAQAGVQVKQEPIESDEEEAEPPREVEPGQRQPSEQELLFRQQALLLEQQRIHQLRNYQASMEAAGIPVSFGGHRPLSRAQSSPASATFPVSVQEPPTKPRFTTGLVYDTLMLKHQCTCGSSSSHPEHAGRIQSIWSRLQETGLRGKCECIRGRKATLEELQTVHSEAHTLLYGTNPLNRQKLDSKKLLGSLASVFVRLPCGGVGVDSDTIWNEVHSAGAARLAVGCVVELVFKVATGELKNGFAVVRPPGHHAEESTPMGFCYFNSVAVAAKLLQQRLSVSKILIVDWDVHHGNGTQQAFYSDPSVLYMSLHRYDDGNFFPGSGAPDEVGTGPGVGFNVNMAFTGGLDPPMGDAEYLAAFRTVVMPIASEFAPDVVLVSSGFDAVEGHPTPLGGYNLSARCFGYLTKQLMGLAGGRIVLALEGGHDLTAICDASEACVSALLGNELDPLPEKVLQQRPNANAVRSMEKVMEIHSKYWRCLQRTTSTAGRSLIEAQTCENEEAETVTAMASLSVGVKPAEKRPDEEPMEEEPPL

| Structure (SMILES) | IC50 [1] [µM] | IC50 [2] [µM] | IC50 ([3]; MV4-11, 48 h) [µM] | GI50 [3] [µM] | IC50 [4] [µM] | IC50 [5] [µM] |
| --- | --- | --- | --- | --- | --- | --- |
| CCCNNC(=O)c1ccc(CNC(=O)/C=C/c2cccnc2)cc1 | > 10 | > 10 | 0.0608 | 0.0383 | > 10 | > 10 |
| CCCNNC(=O)c1ccc(CNC(=O)c2cc3cnccc3[nH]2)cc1 | > 10 | > 10 |  | 0.0236 | > 10 | > 10 |
